Source: US20090221568A1, “Synthesis of Inhibitors of FtsZ” (priority 2005, published 2009)
Read-outs that look alike come from different tables or passages of the source.

Tests used:
B. subtilis = conditions: cited from earlier work
S. aureus = conditions: cited from earlier work
M. smegmatis = conditions: cited from earlier work
E. coli FtsZ [1] = molecular target: T1, E. coli FtsZ (Escherichia coli, UniProt P0A9A6); assay: FtsZ GTPase assay (malachite green); format: biochemical
T1 construct: made in house; host or cells: E. coli BL21(λDE3)
T1 sequence (P0A9A6 whole entry): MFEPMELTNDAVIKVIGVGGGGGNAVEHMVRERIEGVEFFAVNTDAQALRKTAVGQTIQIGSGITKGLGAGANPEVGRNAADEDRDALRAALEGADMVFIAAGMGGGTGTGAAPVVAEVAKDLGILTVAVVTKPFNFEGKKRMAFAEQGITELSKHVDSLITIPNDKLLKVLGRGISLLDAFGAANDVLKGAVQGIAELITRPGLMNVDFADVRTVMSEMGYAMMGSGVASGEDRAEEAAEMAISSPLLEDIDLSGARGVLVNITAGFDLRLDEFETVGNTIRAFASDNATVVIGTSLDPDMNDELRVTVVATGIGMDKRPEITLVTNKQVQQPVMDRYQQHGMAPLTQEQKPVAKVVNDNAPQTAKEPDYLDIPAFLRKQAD
Experimental: GTPase Assay: Untagged E. coli FtsZ was expressed from pET-3Z^+ in BL21(λDE3) cells (RayChaudhuri, D.; Park, J. T. Nature 1992, 359, 251-254) and purified using a two-step ammonium sulfate fractionation (Romberg et al. J. Biol. Chem. 2001, 276, 11743-11753). FtsZ GTPase assay was performed essentially as described by Margalit et al. (Margalit et al. Proc. Natl. Acad. Sci. U.S.A. 2004, 101, 11821-11826). Briefly, 2 μM E. coli FtsZ in polymerization buffer (4-morpholinepropanesulfonic acid, pH 6.5, 50 mM KCl, 5 mM MgCl2) was preincubated with or without varying concentrations of test compounds (in dimethyl sulfoxide, DMSO) such that the DMSO concentrations in the samples were ˜2%. The control tubes received 2% DMSO alone. After a 5-min preincubation at 25° C., the reactions were initiated by adding 0.5 mM GTP. Aliquots were withdrawn after 5, 15 and 25 ininute intervals and quenched with 50 mM EDTA before color development with the malachite green solution [2 volumes malachite green (0.8 mg/ml)/1 volume polyvinyl alcohol (23.2 mg/ml)/1 volume ammonium molybdate (57.2 mg/ml in 2H2O:3HCl)/2 volumes H2O]. IC50 values were determined from the relative slopes of GTP hydrolysis at different inhibitor concentrations compared to the control with DMSO only.

E. coli = conditions: dash with footnote b = no significant activity; cited from earlier work
P. aeruginosa = conditions: dash with footnote b = no significant activity; cited from earlier work
E. coli FtsZ [2] = molecular target: T1, E. coli FtsZ; conditions: value from Margalit et al. 2004 (footnote a); read-out: Inhibition of E. coli FtsZ GTPase activity, IC50; cited from earlier work
bacterial strains = conditions: higher MICs indicate that a strain is becoming resistant; cited from earlier work
[3] = 2 μM E. coli FtsZ, 0.5 mM GTP, pH 6.5, 25° C., read-out: Inhibition of E. coli FtsZ GTPase activity, IC50

Structure (SMILES) | Antimicrobial activities (MICs) B. subtilis (B. subtilis) [µM] | Antimicrobial activities (MICs) S. aureus (S. aureus) [µM] | Inhibition of E. coli GTPase activity, in words (E. coli FtsZ [1]) | effective MIC defined by NCCLS (bacterial strains) [µM] | also measured
O=C1C[C@@H](c2ccccc2)Oc2c(Cc3ccccc3O)c(O)c(Cc3ccccc3O)c(O)c21 (racemic) [Compound 2, (±)-Dichamanetin] | 1.7 | 1.7 | potent inhibitors | – | Antimicrobial activities (MICs) M. smegmatis (M. smegmatis): 3.4 µM; IC50 (E. coli FtsZ [1]; [3]): 12.5 ± 0.5 µM
O=C1C[C@@H](c2ccccc2)Oc2c(Cc3cc(Cc4ccccc4O)ccc3O)c(O)c(Cc3cc(Cc4ccccc4O)ccc3O)c(O)c21 (racemic) [Compound 3, (±)-2′″-Hydroxy-5″-benzylisouvarinol-B] | 2.6 | 10.7 | potent inhibitors | – | Antimicrobial activities (MICs) E. coli (E. coli): 2.3 µM; Antimicrobial activities (MICs) M. smegmatis (M. smegmatis): 3.8 µM; IC50 (E. coli FtsZ [1]): 8.3 ± 0.5 µM; Antimicrobial activities (MICs) P. aeruginosa (P. aeruginosa): 15.4 µM
CC1(C)CC(=O)c2c(O)c(Cc3ccccc3O)c(O)c(Cc3ccccc3O)c2O1 [5,7-dihydroxy-6,8-bis(2-hydroxybenzyl)-2,2-dimethylchroman-4-one] | – | – | – | – | IC50 (E. coli FtsZ [1]; FIG. 27 legend, test not named, presumably FtsZ GTPase, read-out: IC50): 21 µM
Oc1ccc(Cl)cc1Cc1cc(Cl)cc(Cc2cc(Cl)ccc2O)c1O [Compound 1, Zantrin Z1, reference compound] | 1.25 | 2.5 | – | – | Antimicrobial activities (MICs) E. coli (E. coli): 20 µM; IC50 (E. coli FtsZ [2]): 5 ± 0.5 µM; Antimicrobial activities (MICs) P. aeruginosa (P. aeruginosa): 40 µM
CC(=O)c1c(O)c(Cc2ccccc2O)c(O)c(Cc2ccccc2O)c1O [Compound 11, 2,4,6-Trihydroxy-3,5-di(2′-hydroxybenzyl)-acetophenone] | – | – | much less potent | – | IC50 (E. coli FtsZ [1]; [3]): 60.4 ± 2.2 µM
CC[C@H]1OC(=O)[C@H](C)[C@@H](O[C@H]2C[C@@](C)(OC)[C@@H](O)[C@H](C)O2)[C@H](C)[C@@H](O[C@@H]2O[C@H](C)C[C@H](N(C)C)[C@H]2O)[C@](C)(O)C[C@@H](C)C(=O)[C@H](C)[C@@H](O)[C@]1(C)O [erythromycin] | – | – | – | 0.4 | –
COc1cccc(OC)c1C(=O)N[C@@H]1C(=O)N2[C@@H]1SC(C)(C)[C@@H]2C(=O)O [methicillin] | – | – | – | 0.8 | –
CN[C@H](CC(C)C)C(=O)N[C@H]1C(=O)N[C@@H](CC(N)=O)C(=O)N[C@H]2C(=O)N[C@H]3C(=O)N[C@H](C(=O)N[C@H](C(=O)O)c4cc(O)cc(O)c4-c4cc3ccc4O)[C@H](O)c3ccc(c(Cl)c3)Oc3cc2cc(c3O[C@@H]2O[C@H](CO)[C@@H](O)[C@H](O)[C@H]2O[C@H]2C[C@](C)(N)[C@H](O)[C@H](C)O2)Oc2ccc(cc2Cl)[C@H]1O [vancomycin] | – | – | – | 5.8 | –
